These results are taken from patent publication US20070149523A1, “Thiazole Analogues and Uses Thereof” (priority 2005, published 2007).

Usually IC50 stands for the concentration at which inhibition is half-maximal.

Experiment in all cases: In vitro protein kinase assay (radioisotopic 33P, FlashPlate)
Holding throughout (type): biochemical
What all share (conditions): recombinant human kinase

One test has as its target T1, Aurora A (Homo sapiens, UniProt O14965).
T1 construct: made in house; host or cells: Sf9 insect cells (baculovirus)
T1 sequence (O14965 1-403): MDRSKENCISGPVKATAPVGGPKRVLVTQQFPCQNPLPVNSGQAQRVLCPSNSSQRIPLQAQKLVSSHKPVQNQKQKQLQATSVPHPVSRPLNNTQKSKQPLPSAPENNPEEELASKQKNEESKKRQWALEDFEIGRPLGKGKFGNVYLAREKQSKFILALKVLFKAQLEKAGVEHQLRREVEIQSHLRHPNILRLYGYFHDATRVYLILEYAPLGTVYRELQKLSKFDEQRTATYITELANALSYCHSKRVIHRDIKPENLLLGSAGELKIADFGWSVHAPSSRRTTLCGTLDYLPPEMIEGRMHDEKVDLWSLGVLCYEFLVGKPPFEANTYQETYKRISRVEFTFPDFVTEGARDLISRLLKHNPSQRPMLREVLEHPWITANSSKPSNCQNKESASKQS
As to the method:
(§1) The effect of the thiazole derivatives was tested on recombinant, human protein kinases in in vitro protein kinase assays.
(§2) The protein kinases were expressed in Sf9 insect cells as human recombinant GST-fusion proteins or as His-tagged proteins by means of the baculovirus expression system.
(§3) The kinase activity was measured with a radioisotopic protein kinase assay by measuring the incorporation of ^33P-phosphate into proteins or peptide substrates. The assays were performed in FlashPlate™ microtiter scintillation plates and incorporation of ^33P-phosphate was determined with a microplate scintillation counter.

The target of a further test is T2, VEGF-R3 (Homo sapiens, UniProt P35916).
T2 construct: made in house; host or cells: Sf9 insect cells (baculovirus)
T2 sequence (P35916 25-1363): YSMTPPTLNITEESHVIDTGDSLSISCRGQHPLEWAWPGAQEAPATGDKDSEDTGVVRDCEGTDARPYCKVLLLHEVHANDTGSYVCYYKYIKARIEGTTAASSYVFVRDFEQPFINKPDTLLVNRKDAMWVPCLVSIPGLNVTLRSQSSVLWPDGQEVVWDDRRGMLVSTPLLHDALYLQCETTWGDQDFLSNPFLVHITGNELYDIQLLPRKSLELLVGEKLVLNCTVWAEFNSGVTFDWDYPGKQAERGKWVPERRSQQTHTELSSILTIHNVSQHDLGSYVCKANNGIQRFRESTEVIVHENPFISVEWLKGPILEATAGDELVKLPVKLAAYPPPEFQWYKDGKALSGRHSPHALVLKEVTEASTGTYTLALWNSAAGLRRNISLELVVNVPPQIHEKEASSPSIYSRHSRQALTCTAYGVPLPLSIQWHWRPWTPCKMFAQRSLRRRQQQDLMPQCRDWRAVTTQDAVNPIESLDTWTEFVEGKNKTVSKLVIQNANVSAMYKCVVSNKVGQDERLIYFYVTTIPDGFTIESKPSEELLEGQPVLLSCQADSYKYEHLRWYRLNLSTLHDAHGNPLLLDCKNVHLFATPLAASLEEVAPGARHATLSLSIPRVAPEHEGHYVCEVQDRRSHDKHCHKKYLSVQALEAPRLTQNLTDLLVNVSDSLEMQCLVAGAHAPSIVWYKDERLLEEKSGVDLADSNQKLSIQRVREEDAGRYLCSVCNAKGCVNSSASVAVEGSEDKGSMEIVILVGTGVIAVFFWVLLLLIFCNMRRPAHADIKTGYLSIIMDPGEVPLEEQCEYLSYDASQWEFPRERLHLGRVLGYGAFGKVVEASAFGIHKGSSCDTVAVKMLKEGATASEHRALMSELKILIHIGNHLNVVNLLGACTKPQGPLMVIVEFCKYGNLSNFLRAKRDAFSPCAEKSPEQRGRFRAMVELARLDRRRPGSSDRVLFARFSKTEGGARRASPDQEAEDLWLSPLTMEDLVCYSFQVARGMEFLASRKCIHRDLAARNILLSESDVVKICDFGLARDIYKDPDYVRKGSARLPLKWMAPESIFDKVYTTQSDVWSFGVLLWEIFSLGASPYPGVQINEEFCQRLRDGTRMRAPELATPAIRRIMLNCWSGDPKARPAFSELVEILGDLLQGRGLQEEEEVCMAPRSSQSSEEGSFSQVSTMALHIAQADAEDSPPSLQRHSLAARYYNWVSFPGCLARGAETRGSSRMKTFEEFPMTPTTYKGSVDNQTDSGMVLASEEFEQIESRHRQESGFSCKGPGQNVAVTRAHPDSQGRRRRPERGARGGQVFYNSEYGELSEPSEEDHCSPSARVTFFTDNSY
As to the method:
as §1, §2, §3

The next test deals with T3, TIE2 (Homo sapiens, UniProt Q02763).
T3 construct: made in house; host or cells: Sf9 insect cells (baculovirus)
T3 sequence (Q02763 23-1124): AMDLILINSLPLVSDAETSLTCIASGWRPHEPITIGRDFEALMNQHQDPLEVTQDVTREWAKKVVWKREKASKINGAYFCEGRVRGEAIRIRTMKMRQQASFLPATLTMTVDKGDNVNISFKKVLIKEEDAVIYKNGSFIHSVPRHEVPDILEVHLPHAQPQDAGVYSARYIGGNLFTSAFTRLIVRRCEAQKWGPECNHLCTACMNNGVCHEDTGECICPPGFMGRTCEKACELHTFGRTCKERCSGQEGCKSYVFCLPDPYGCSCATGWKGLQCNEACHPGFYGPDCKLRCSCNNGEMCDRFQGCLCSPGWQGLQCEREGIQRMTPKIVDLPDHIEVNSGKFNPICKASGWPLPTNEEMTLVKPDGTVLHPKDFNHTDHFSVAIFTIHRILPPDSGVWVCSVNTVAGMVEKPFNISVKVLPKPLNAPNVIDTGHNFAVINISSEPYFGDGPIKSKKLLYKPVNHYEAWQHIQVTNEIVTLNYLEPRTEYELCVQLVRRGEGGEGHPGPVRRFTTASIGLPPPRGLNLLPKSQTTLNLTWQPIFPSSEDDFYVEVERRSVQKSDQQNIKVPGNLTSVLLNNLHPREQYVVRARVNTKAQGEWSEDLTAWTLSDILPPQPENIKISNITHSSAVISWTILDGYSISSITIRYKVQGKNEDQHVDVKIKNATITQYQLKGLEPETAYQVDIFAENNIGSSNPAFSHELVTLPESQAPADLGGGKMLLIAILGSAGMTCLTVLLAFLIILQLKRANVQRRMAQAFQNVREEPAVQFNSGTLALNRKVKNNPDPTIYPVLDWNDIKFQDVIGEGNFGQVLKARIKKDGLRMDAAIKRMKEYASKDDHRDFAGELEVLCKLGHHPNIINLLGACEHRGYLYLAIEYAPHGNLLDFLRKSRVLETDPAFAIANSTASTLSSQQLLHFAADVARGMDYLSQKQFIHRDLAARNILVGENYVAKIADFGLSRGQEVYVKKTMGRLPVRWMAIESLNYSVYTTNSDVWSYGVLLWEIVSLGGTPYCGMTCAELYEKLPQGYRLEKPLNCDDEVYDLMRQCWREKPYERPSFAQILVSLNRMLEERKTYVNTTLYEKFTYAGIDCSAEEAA
How it is done: as §1, §2, §3

The target of another test is T4, EGF-R (Homo sapiens, UniProt P00533).
T4 construct: made in house; host or cells: Sf9 insect cells (baculovirus)
As to the method: as §1, §2, §3

A further test deals with T5, FLT3 (Homo sapiens, UniProt P36888).
T5 construct: made in house; host or cells: Sf9 insect cells (baculovirus)
T5 sequence (P36888 27-993): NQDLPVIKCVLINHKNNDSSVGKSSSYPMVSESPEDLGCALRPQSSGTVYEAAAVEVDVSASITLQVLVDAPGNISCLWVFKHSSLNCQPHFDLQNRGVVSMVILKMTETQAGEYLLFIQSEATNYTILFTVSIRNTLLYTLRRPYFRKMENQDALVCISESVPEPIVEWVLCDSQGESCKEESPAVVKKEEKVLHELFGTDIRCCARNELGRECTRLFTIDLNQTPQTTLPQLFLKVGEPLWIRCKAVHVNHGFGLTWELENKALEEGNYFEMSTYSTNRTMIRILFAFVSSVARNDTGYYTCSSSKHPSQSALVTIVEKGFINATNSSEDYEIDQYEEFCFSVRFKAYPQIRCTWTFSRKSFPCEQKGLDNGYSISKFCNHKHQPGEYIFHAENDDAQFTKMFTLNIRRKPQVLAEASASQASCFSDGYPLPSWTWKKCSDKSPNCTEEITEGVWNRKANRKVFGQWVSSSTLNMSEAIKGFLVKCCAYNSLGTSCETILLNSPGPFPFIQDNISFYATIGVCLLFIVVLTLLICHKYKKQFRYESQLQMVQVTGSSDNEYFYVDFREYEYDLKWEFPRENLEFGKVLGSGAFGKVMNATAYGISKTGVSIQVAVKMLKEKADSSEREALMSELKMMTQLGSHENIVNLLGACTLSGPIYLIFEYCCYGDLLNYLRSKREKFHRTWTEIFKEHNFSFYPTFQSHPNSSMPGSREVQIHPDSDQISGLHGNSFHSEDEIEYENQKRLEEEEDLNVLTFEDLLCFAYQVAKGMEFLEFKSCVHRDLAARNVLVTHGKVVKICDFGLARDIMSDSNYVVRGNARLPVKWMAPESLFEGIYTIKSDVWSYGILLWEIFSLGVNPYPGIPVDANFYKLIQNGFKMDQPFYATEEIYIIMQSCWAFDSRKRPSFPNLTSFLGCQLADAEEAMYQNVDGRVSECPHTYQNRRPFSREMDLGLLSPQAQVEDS
How it is done:
as §1, §2, §3

The target in a further test is PDGF-Rβ (Homo sapiens, UniProt P09619). Also on record: made in house; host or cells: Sf9 insect cells (baculovirus). As to the method:
as §1, §2, §3

Another test concerns the target Aurora B (Homo sapiens, UniProt Q96GD4). Also on record: made in house; host or cells: Sf9 insect cells (baculovirus). As to the method:
as §1, §2, §3

For the next test, the target named is VEGF-R2 (Homo sapiens, UniProt P35968). The arrangement: made in house; host or cells: Sf9 insect cells (baculovirus). As to the method:
as §1, §2, §3

VEGF-R2, sequence (P35968 20-1356): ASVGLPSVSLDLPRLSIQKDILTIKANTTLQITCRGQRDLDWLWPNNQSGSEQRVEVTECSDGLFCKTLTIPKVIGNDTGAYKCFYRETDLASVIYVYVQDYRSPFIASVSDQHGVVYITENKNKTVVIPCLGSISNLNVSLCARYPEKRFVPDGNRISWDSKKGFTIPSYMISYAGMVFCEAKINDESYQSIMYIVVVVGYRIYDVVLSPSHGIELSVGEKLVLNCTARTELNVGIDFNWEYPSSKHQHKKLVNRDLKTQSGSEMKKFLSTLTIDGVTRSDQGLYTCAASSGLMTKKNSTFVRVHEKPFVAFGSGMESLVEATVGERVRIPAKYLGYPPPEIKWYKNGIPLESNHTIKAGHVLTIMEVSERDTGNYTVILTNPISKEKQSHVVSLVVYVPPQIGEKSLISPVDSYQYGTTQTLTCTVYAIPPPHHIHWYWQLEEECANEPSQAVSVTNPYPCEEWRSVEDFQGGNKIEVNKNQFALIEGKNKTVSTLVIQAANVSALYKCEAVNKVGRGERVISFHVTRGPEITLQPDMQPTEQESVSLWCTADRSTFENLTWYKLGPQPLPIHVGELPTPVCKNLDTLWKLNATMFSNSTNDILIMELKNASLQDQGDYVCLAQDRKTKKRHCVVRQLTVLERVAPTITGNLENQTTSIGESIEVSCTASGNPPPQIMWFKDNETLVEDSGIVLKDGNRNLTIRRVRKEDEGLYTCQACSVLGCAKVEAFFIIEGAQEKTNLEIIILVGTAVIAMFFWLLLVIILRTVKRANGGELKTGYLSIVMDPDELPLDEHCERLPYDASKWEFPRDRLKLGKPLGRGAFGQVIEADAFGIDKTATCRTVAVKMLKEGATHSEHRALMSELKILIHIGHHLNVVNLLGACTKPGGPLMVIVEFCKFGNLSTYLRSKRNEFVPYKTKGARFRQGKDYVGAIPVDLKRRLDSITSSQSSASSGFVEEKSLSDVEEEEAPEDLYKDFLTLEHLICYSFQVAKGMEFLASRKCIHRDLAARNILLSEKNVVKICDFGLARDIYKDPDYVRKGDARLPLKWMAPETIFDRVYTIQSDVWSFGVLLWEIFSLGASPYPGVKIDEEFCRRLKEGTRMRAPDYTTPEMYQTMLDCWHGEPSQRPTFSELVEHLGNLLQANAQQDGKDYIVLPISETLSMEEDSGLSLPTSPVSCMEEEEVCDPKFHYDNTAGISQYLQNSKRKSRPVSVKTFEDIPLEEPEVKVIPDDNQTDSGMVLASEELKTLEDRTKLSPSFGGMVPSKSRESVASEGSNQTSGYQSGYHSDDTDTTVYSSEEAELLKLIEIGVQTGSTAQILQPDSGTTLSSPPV
PDGF-Rβ, sequence (P09619 33-1106): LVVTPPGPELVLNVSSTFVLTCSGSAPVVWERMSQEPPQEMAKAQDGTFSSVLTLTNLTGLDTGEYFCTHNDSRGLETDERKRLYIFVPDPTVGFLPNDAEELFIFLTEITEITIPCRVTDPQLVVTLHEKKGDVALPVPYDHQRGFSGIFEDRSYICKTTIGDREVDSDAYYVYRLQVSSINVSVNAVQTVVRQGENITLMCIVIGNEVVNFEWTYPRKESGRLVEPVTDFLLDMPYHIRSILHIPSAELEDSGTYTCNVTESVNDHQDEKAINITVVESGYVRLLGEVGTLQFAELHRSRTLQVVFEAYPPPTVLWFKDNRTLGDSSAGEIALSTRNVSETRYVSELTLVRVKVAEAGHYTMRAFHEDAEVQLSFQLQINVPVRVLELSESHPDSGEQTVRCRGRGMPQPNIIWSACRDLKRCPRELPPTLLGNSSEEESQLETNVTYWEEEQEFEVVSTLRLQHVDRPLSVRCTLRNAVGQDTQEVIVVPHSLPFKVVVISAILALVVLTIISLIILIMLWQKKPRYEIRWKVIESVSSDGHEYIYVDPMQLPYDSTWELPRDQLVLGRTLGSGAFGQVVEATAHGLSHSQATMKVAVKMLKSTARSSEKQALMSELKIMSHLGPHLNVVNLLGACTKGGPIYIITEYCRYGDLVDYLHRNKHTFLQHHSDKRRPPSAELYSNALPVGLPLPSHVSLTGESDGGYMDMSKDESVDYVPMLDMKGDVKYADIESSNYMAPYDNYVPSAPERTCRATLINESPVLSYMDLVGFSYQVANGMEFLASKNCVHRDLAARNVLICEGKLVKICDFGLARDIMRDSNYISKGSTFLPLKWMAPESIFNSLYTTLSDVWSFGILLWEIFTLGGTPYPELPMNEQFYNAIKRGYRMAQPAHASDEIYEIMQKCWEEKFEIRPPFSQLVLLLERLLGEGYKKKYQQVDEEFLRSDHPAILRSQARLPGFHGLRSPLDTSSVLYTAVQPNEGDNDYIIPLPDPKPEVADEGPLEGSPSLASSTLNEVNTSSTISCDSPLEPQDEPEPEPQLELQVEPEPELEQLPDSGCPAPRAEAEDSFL

`COC(=O)CCc1cnc(Nc2ncnc3cc(OC)c(OC)cc23)s1` [Compound 3, 3-[2-(6,7-dimethoxy-quinazolin-4-ylamino)-thiazol-5-yl]-propionic acid methyl ester]: the IC50 on Aurora A amounted to 990 nM; at VEGF-R3, 560 nM; at TIE2 it was 3400 nM; on EGF-R it was 4000 nM; at FLT3, 8900 nM; on PDGF-Rβ it was 11000 nM. Moreover, the figures for the IC50 at Aurora B and at VEGF-R2 were 2400 nM and 390 nM, respectively.

`COc1cc2c(Nc3ncc(CCNC(=O)c4ccccc4)s3)ncnc2cc1OCCCN1CCCC1` [Compound 2, N-(2-{2-[6-methoxy-7-(3-pyrrolidin-1-yl-propoxy)-quinazolin-4-ylamino]-thiazol-5-yl}-ethyl)-benzamide]: the IC50 came to 160 nM at Aurora A; 2800 nM at VEGF-R3; 1000 nM at TIE2; 20000 nM on EGF-R; 11000 nM at FLT3; 15000 nM on PDGF-Rβ. Also, the IC50 at Aurora B came out at 620 nM; at VEGF-R2 it was 2000 nM.

As to `COc1cc2ncnc(Nc3ncc(CCC(=O)Nc4ccc(F)cc4)s3)c2cc1OC` [Compound 8, 3-(2-(6,7-dimethoxyquinazolin-4-ylamino)thiazol-5-yl)-N-(4-fluorophenyl)propanamide], the IC50 turned out to be 6000 nM at Aurora A; 1100 nM at VEGF-R3; 14000 nM at TIE2; 61000 nM on EGF-R; 5400 nM on FLT3; 27000 nM on PDGF-Rβ. For the same molecule, the results for the IC50 at Aurora B and on VEGF-R2 were 2300 nM and 960 nM, respectively.

For the molecule `COc1cc2ncnc(Nc3ncc(CCC(=O)Nc4cccc(F)c4)s3)c2cc1OC` [Compound 7, 3-(2-(6,7-dimethoxyquinazolin-4-ylamino)thiazol-5-yl)-N-(3-fluorophenyl)propanamide], the IC50 came to 1300 nM at Aurora A; 1100 nM at VEGF-R3; 21000 nM at TIE2; 43000 nM on EGF-R; 25000 nM on FLT3; 41000 nM at PDGF-Rβ. Also, the IC50 was 2900 nM at Aurora B and 1500 nM at VEGF-R2.

On to `COc1cc2c(Nc3ncc(CCC(=O)Nc4cccc(F)c4)s3)ncnc2cc1OCCCN1CCCC1` [Compound 5, N-(3-fluoro-phenyl)-3-{2-[6-methoxy-7-(3-pyrrolidin-1-yl-propoxy)-quinazolin-4-ylamino]-thiazol-5-yl}-propionamide], for which the half-maximal inhibitory concentration (IC50) worked out at 400 nM at Aurora A; 74 nM on VEGF-R3; 360 nM on TIE2; 29000 nM at EGF-R; 380 nM at FLT3; 560 nM at PDGF-Rβ. Besides, the IC50 on Aurora B came out at 610 nM; at VEGF-R2 it was 65 nM.
